Measurements reported in patent US11883538B2, “Sustained release compositions comprising micronized tolcapone” (Som Innovation Biotech, S.L., priority 2016, dated 2024).

Assay: Determination of tolcapone's particle size (laser analyzer MASTERSIZER 2000, Ph. Eur. 2.9.31)
Type: physicochemical
Details: wet dispersion in water for injection
Text: Determination of Tolcapone's Particle Size
Particle size measurement (Dv,0.1, Dv,05, Dv,0.9 and Dv,1.0) may be determined according to the general method described in section 2.9.31 of the European Pharmacopeia in particular using a particle size laser analyzer MASTERSIZER 2000 from Malvern featuring a wet dispersion unit HYDRO 2000 SM for small volumes of sample.
Material: • Sample: Tolcapone suspension • Refraction index: 1.59 (default) • Dispersant: water for injection • Refraction index: 1.33
Cycles: • Measurements for each aliquot: 3 • Lag time: 12 s • Pump stirring velocity: 2500 rpm
Measuring Time: • Measure: 12 s (in triplicates) • Measure snaps: 12000 • Background: 10 s • Background snaps: 10000
Three readings are made for each sample.
Thus, Dv,0.9 lower than 54.33 μm that 90% of the volume of the particles is in particles which are smaller 54.33 μm.

| Structure (SMILES) | Dv,0.1 [μm] | Dv,0.5 [μm] | Dv,0.9 [μm] | Dv,1.0 [μm] |
| --- | --- | --- | --- | --- |
| Cc1ccc(C(=O)c2cc(O)c(O)c([N+](=O)[O-])c2)cc1 [micronized tolcapone, (3,4-dihydroxy-5-nitrophenyl)(4-methylphenyl)methanone] | <6.09 | <17.62 | <54.33 | <316.23 |
| Cc1ccc(C(=O)c2cc(O)c(O)c([N+](=O)[O-])c2)cc1 [non-micronized tolcapone, (3,4-dihydroxy-5-nitrophenyl)(4-methylphenyl)methanone] | <22.45 | <87.23 | <307.86 | <1096.48 |
